Measured values from patent publication US11168093B2, “Thienopyridine inhibitors of RIPK2” (Celgene Corporation, priority 2018, dated 2021).

What follows are molecules tested against RIPK2 enzyme (Homo sapiens (Human), UniProt O43353) (assay: RIPK2 inhibition assay, TR-FRET LanthaScreen Tracer 199 screening assay). Details: 5 nM RIPK2 enzyme, Tracer 199 at 50 nM, Eu-anti-His Antibody at 2 nM, 1 hour incubation.
Format: binding
Summary of the method: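 TR-FRET binding displacement: 5 nM RIPK2, 50 nM Tracer 199, 2 nM Eu-anti-His antibody in 1× kinase reaction buffer, 1 h, read at room temperature (340 ex/665 and 615 em). No-enzyme background subtracted; percent inhibition versus uninhibited controls, IC50 from unconstrained variable-slope fit.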

Chain of RIPK2 enzyme (O43353 whole entry): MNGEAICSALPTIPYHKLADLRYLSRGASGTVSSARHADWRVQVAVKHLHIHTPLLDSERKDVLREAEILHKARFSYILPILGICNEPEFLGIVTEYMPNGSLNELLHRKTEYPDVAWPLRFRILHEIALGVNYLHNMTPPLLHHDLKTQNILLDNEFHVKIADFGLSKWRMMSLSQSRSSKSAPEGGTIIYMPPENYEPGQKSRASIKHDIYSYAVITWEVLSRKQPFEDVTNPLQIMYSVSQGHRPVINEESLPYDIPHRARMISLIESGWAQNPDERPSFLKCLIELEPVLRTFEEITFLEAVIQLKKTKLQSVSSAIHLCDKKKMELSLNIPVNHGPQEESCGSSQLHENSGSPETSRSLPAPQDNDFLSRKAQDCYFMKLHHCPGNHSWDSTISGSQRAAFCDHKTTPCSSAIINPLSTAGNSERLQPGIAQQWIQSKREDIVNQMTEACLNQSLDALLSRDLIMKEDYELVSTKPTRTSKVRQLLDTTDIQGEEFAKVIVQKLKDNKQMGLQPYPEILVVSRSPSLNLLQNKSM

| Compound | IC50 [µM] |
| --- | --- |
| CC(=O)N1CCCC(c2cc3c(Nc4ccc5scnc5c4)ccnc3s2)CC1 (stereo not shown) [Example 111, 1-(4-(4-(benzo[d]thiazol-5-ylamino)thieno[2,3-b]pyridin-2-yl)azepan-1-yl)ethan-1-one] | 0.01 to 0.02 |
| CCN1CCC(c2cc3c(Nc4c(F)cc5scnc5c4F)ccnc3s2)C12CCOCC2 (stereo not shown) [Example 104, N-(2-(1-ethyl-8-oxa-1-azaspiro[4.5]decan-4-yl)thieno[2,3-b]pyridin-4-yl)-4,6-difluorobenzo[d]thiazol-5-amine] | ≥ 0.05 |
| C1=C(c2cc3c(Nc4ccc5scnc5c4)ccnc3s2)C2(CCOCC2)NC1 [Example 46, N-(2-(8-oxa-1-azaspiro[4.5]dec-3-en-4-yl)thieno[2,3-b]pyridin-4-yl)benzo[d]thiazol-5-amine] | ≤ 0.01 |
| CN1CCCC(c2cc3c(Nc4ccc5scnc5c4)ccnc3s2)CC1 (stereo not shown) [Example 109, N-(2-(1-methylazepan-4-yl)thieno[2,3-b]pyridin-4-yl)benzo[d]thiazol-5-amine] | ≤ 0.01 |
| CN1CCCC=C(c2cc3c(Nc4ccc5scnc5c4)ccnc3s2)C1 [Example 113, N-(2-(1-methyl-2,5,6,7-tetrahydro-1H-azepin-3-yl)thieno[2,3-b]pyridin-4-yl)benzo[d]thiazol-5-amine] | ≤ 0.01 |
| COCCN1CCC=C(c2cc3c(Nc4ccc5scnc5c4)ccnc3s2)[C@H]1C [Example 12a, N-(2-(1-(2-methoxyethyl)-2-methyl-1,2,5,6-tetrahydropyridin-3-yl)thieno[2,3-b]pyridin-4-yl)benzo[d]thiazol-5-amine] | ≤ 0.01 |
| CC1NCCC1c1cc2c(Nc3c(F)cc4scnc4c3F)ccnc2s1 (stereo not shown) [Example 93, 4,6-difluoro-N-(2-(2-methylpyrrolidin-3-yl)thieno[2,3-b]pyridin-4-yl)benzo[d]thiazol-5-amine] | ≤ 0.01 |
| CCOCCN1CCCC(c2cc3c(Nc4ccc5scnc5c4)ccnc3s2)C1C (stereo not shown) [Example 19, N-(2-(1-(2-ethoxyethyl)-2-methylpiperidin-3-yl)thieno[2,3-b]pyridin-4-yl)benzo[d]thiazol-5-amine] | 0.01 to 0.02 |
| CCN1CCC(c2cc3c(Nc4ccc5scnc5c4F)ccnc3s2)C1C (stereo not shown) [Example 88, N-(2-(1-ethyl-2-methylpyrrolidin-3-yl)thieno[2,3-b]pyridin-4-yl)-4-fluorobenzo[d]thiazol-5-amine] | ≤ 0.01 |
| CC1C(c2cc3c(Nc4ccc5scnc5c4)ccnc3s2)CCCN1C (stereo not shown) [Example 4, N-(2-(1,2-dimethylpiperidin-3-yl)thieno[2,3-b]pyridin-4-yl)benzo[d]thiazol-5-amine] | ≤ 0.01 |
| C[C@H]1[C@@H](c2cc3c(Nc4ccc5scnc5c4F)ccnc3s2)CCCN1C [Example 61, N-(2-((2S,3S)-1,2-dimethylpiperidin-3-yl)thieno[2,3-b]pyridin-4-yl)-4-fluorobenzo[d]thiazol-5-amine] | ≤ 0.01 |
| CCN1CC=C(c2cc3c(Nc4ccc5scnc5c4)ccnc3s2)C12CCOCC2 [Example 47, N-(2-(1-ethyl-8-oxa-1-azaspiro[4.5]dec-3-en-4-yl)thieno[2,3-b]pyridin-4-yl)benzo[d]thiazol-5-amine] | ≤ 0.01 |
| CCC1C(c2cc3c(Nc4ccc5scnc5c4)ccnc3s2)CCCN1C (stereo not shown) [Example 23a, N-(2-(2-ethyl-1-methylpiperidin-3-yl)thieno[2,3-b]pyridin-4-yl)benzo[d]thiazol-5-amine] | ≤ 0.01 |
| COCCN1CCCC(c2cc3c(Nc4ccc5scnc5c4)ccnc3s2)C1C (stereo not shown) [Example 13, N-(2-(1-(2-methoxyethyl)-2-methylpiperidin-3-yl)thieno[2,3-b]pyridin-4-yl)benzo[d]thiazol-5-amine] | ≤ 0.01 |
| c1cc(Nc2ccc3scnc3c2)c2cc(C3CCCNCC3)sc2n1 (stereo not shown) [Example 108, N-(2-(azepan-4-yl)thieno[2,3-b]pyridin-4-yl)benzo[d]thiazol-5-amine] | ≤ 0.01 |
| COCCN1CCC=C(c2cc3c(Nc4ccc5scnc5c4)ccnc3s2)C1C (stereo not shown) [Example 12, N-(2-(1-(2-methoxyethyl)-2-methyl-1,2,5,6-tetrahydropyridin-3-yl)thieno[2,3-b]pyridin-4-yl)benzo[d]thiazol-5-amine] | ≤ 0.01 |
| CN1CCC(c2cc3c(Nc4cc5ncsc5cc4F)ccnc3s2)C12CCOCC2 (stereo not shown) [Example 85, 6-fluoro-N-(2-(1-methyl-8-oxa-1-azaspiro[4.5]decan-4-yl)thieno[2,3-b]pyridin-4-yl)benzo[d]thiazol-5-amine] | ≥ 0.05 |
| CC1C(c2cc3c(Nc4ccc5scnc5c4)c(F)cnc3s2)CCCN1C (stereo not shown) [Example 120, N-(2-(1,2-dimethylpiperidin-3-yl)-5-fluorothieno[2,3-b]pyridin-4-yl)benzo[d]-thiazol-5-amine] | ≤ 0.01 |
| CCN1CCCC(c2cc3c(Nc4ccc5scnc5c4)ccnc3s2)CC1 (stereo not shown) [Example 110, N-(2-(1-ethylazepan-4-yl)thieno[2,3-b]pyridin-4-yl)benzo[d]thiazol-5-amine] | ≤ 0.01 |
| CCN1CCC(c2cc3c(Nc4ccc5scnc5c4F)ccnc3s2)C1(C)C (stereo not shown) [Example 91, N-(2-(1-ethyl-2,2-dimethylpyrrolidin-3-yl)thieno[2,3-b]pyridin-4-yl)-4-fluorobenzo[d]thiazol-5-amine] | 0.01 to 0.02 |

Further lines, results first:

| IC50 [µM] | Compound |
| --- | --- |
| ≤ 0.01 | CCN1CCC[C@@H](c2cc3c(Nc4cc5ncsc5cc4F)ccnc3s2)[C@H]1C [Example 53b, N-(2-((2R)-1-ethyl-2-methylpiperidin-3-yl)thieno[2,3-b]pyridin-4-yl)-6-fluorobenzo[d]thiazol-5-amine] |
| ≤ 0.01 | CC1C(c2cc3c(Nc4c(F)cc5scnc5c4F)c(F)cnc3s2)CCCN1C (stereo not shown) [Example 127b] |
| ≤ 0.01 | C[C@H]1NCCC[C@@H]1c1cc2c(Nc3ccc4scnc4c3F)ccnc2s1 [Example 56a, 4-fluoro-N-(2-((2R,3S)-2-methyl-piperidin-3-yl)thieno[2,3-b]pyridin-4-yl)benzo[d]thiazol-5-amine] |
| ≥ 0.05 | CC1C(c2cc3c(Nc4cc5ncsc5cc4F)c(F)cnc3s2)CCCN1C (stereo not shown) [Example 123a, N-(2-(1,2-dimethylpiperidin-3-yl)-5-fluorothieno[2,3-b]pyridin-4-yl)-6-fluorobenzo[d]thiazol-5-amine] |
| ≤ 0.01 | CC1C(c2cc3c(Nc4ccc5scnc5c4)c(F)cnc3s2)CCCN1C (single isomer, unassigned) [Example 120b, N-(2-(1,2-dimethylpiperidin-3-yl)-5-fluorothieno[2,3-b]pyridin-4-yl)benzo[d]-thiazol-5-amine] |
| ≤ 0.01 | CCN1CCC[C@H](c2cc3c(Nc4c(F)cc5scnc5c4F)ccnc3s2)[C@@H]1C [Example 74b, N-(2-((2S,3S)-1-ethyl-2-methylpiperidin-3-yl)thieno[2,3-b]pyridin-4-yl)-4,6-difluorobenzo[d]thiazol-5-amine] |
| ≤ 0.01 | C[C@@H]1NCCC[C@@H]1c1cc2c(Nc3ccc4scnc4c3F)ccnc2s1 [Example 57b, 4-fluoro-N-(2-((2S,3S)-2-methylpiperidin-3-yl)thieno-[2,3-b]pyridin-4-yl)benzo[d]thiazol-5-amine] |
| ≤ 0.01 | CC1NCCCCC1c1cc2c(Nc3c(F)cc4scnc4c3F)ccnc2s1 (stereo not shown) [Example 118b, 4,6-difluoro-N-(2-(2-methylazepan-3-yl)thieno[2,3-b]pyridin-4-yl)benzo[d]thiazol-5-amine] |
